The values below are quoted from earlier work in patent US20230076527A1, “TREATMENT OF PAROXYSMAL NOCTURNAL HEMOGLOBINURIA” (Apellis Pharmaceuticals, Inc., priority 2020, published 2023).

The data set deals with complement activation. To be noted: relative to compstatin amidated at the C-terminus; published data; cited from earlier work.
On to “Ac-1CV(2-Igl)QDWGAHRCT-CONH2 [Ac-V42Igl/H9A]”, for which the Activity over compstatin is 39xmore. As to “Ac-ICV(1-Nal)QDWGAHRCT-COOH (N-acetyl, 1-Nal) [Ac V4(1-Nal)/H9A -OH]”, the Activity over compstatin was 30xmore. For “Ac-ICV(2-Igl)QDWGAHRCT-COOH (N-acetyl, 2-Igl) [Ac-V42Igl/H9A -OH]”, the Activity over compstatin is 37xmore. Take “Ac-ICV(2-Nal)QDWGAHRCT-CONH2 (N-acetyl, C-amide, 2-Nal) [Ac-V4(2-Nal)/H9A]”: the Activity over compstatin is 99xmore. In the case of “Ac-ICV(2-Nal)QDWGAHRCT-COOH (N-acetyl, 2-Nal) [Ac V4(2-Nal)/H9A -OH]”, the Activity over compstatin is on record as 38xmore.

For “Ac-ICV(Bpa)QDWGAHRCT-CONH2 (N-acetyl, C-amide, Bpa) [Ac-V4(Bpa)/H9A]”, the Activity over compstatin is reported as 86xmore.

For “Ac-ICV(Bpa)QDWGAHRCT-COOH (N-acetyl, Bpa) [Ac-V4(Bpa)/H9A -OH]”, the Activity over compstatin is 49xmore. Take “Ac-ICVDhtQDWGAHRCT-COOH [Ac-V4Dht/H9A -OH]”: the Activity over compstatin is 5xmore.

As for Ac-ICVVQDWGHHRCT-CONH2 [Ac-compstatin], the Activity over compstatin was 3xmore. As for “Ac-ICVWQD(5fW)GAHRCT-CONH2 [Ac-V4W/W7(5fW)/H9A]”, the Activity over compstatin is reported as 121xmore. As for “Ac-ICVWQDWGAHRCT-CONH2 (Ac-ICVWQDWGAHRCT-NH2; cysteine pairing not given here) [Ac-V4W/H9A]”, the Activity over compstatin is reported as 45xmore.

Regarding “Ac-ICVWQDWGAHRCdT-COOH [AC-V4W/H9A/T13dT -OH]”, the Activity over compstatin is given as 55xmore. As for Ac-ICVYQDWGAHRCT-CONH2 [AC-V4Y/H9A], the Activity over compstatin is recorded as 14xmore. In the case of “H-GICV(6fW)QD(6fW)GAHRCTN-COOH (6-fluoro-Trp) [+G/V4(6fW)/W7(6fW)H9A+N -OH]”, the Activity over compstatin is listed as 126xmore.
